Values of other authors as cited in patent US10543503B1, “Methods of delivery of encapsulated perfluorocarbon taggants” (Copilot Ventures Fund III LLC, priority 2011, dated 2020).

Experiments:
cytochrome P-450 = conditions: PFD given to rats; hepatic metabolizing enzymes
[1] = system: cytochrome P-450 IIA1 and IIA2 (a.k.a. cytochrome P450b and cytochrome P450e); conditions: rats, following PFD treatment
[2] = system: cytochrome P-450 IA1 and IA1; conditions: rats, following PFD treatment; enzymes induced by 3-methylcholanthrene-type inducers
cytochrome P450 IV = conditions: rats, following PFD treatment; enzyme induced by fatty acids and perfluoronated fatty acids
aldrin-epoxidase = conditions: rats, following PFD treatment
[3] = system: benzphetamine-N-demethylase; conditions: rats, following PFD treatment

FC1(F)C(F)(F)C(F)(F)C2(F)C(F)(F)C(F)(F)C(F)(F)C(F)(F)C2(F)C1(F)F (stereo not drawn) [PFD, perfluorodecalin]
induction of cytochrome P-450 (cytochrome P-450): induce cytochrome P-450 in a manner similar to phenobarbital | increase of activities of cytochrome P-450 IIA1 and IIA2 [1]: approximately two-fold | activities of cytochrome P-450 IA1 and IA1 [2]: unaffected | activity of cytochrome P450 IV (cytochrome P450 IV): unaffected | activity of aldrin-epoxidase (aldrin-epoxidase): increased | activity of benzphetamine-N-demethylase [3]: increased
